Columns and labels:
[1] = tested on: Human NCI-H929 (H929) multiple myeloma cells; test: H929 human xenograft model, tasquinimod with bortezomib or dexamethasone (Example 1); assay type: in vivo; conditions: s.c. H929 in NSG mice; TQ 30 mg/kg drinking water; VEL 0.5 mg/kg i.v. every 4 days; compared to control mice; FIG. 1
Experimental: Human NCI-H929 (H929) multiple myeloma cells were inoculated subcutaneously in NSG mice. Tumour-bearing mice were treated with vehicle (VC), tasquinimod (TQ) 30 mg/kg ad lib in the drinking water starting when there were palpable tumors (i.e. day 18 after tumor inoculation); bortezomib (VEL), 0.5 mg/kg, i.v. every 4 days; dexamethasone (DEX), 10 mg/kg, i.p., 5 days on, 2 days off; or the combinations (TQ+DEX) and (TQ+VEL), and. Statistics: Two-way ANOVA; p-values VC vs TQ p=0.0009, VC vs VEL p=0.041, VC vs DEX p=0.0081, DEX vs DEX+TQ ns, TQ vs TQ+VEL p=0.0002, VEL vs VEL+TQ p=0.0361. The results are illustrated in FIG. 1.

MM1.S cells = test: Human MM1.S xenograft model of multiple myeloma, tasquinimod with lenalidomide (Example 2); assay type: in vivo; conditions: s.c. MM1.S in NSG mice; TQ 30 mg/kg/day drinking water; LEN 5 mg/kg oral gavage; from day 14; compared to control mice; FIG. 2
Experimental: The effect of tasquinimod in combination with lenalidomide was studied in a human MM1.S model of multiple myeloma. The MM1.S cells were established from a patient with IgA myeloma with characteristics typical of human myeloma cells (Greenstein et al., Exp Hematol. 2003 April; 31(4):271-82). MM1.S model was established by subcutaneous inoculation of 5×10^6 MM1.S cells into NSG mice. Treatment with tasquinimod (TQ), 30 mg/kg/day in the drinking water; lenalidomide (LEN), 5 mg/kg via oral gavage, 5 consecutive days with 2 days breaks until the endpoint, or the combination of tasquinimod and lenalidomide (TQ+LEN), started when the tumors were measurable (day 14 after tumor cell injection). Tumor size was monitored using a caliper and tumor volume was calculated. Differences between groups were evaluated by using two-way ANOVA; p-values: TQ vs TQ+LEN p=0.0001, LEN vs LEN+TQ p=0.0183. The results are illustrated in FIG. 2.

Row | SMILES | multiple myeloma tumor growth (tumour area), result in words [1] | multiple myeloma growth (tumour volume), result in words (MM1.S cells)
1 | CC(C)C[C@H](NC(=O)[C@H](Cc1ccccc1)NC(=O)c1cnccn1)B(O)O [bortezomib, [(1R)-3-methyl-1-[[(2S)-3-phenyl-2-(pyrazine-2-carbonylamino)propanoyl]amino]butyl]-boronic acid] | reduced the multiple myeloma tumor growth | 
2 | COc1cccc2c1c(O)c(C(=O)N(C)c1ccc(C(F)(F)F)cc1)c(=O)n2C [tasquinimod, 4-hydroxy-5-methoxy-N,1-dimethyl-2-oxo-N-[4-(trifluoromethyl)phenyl]-1,2-dihydroquinoline-3-carboxamide] | reduced the multiple myeloma tumor growth | reduced the multiple myeloma growth
3 | Nc1cccc2c1CN(C1CCC(=O)NC1=O)C2=O (stereo not shown) [lenalidomide, 3-(4-amino-1-oxoisoindolin-2-yl)piperidine-2,6-dione] |  | reduced the multiple myeloma growth

Source: patent publication US12582643B2, “Tasquinimod or a pharmaceutically acceptable salt thereof for use in combination therapy” (ACTIVE BIOTECH AB, priority 2020, dated 2026)
